Consider 16 molecules from PMC6882489, “Design and synthesis of tricyclic terpenoid derivatives as novel PTP1B inhibitors with improved pharmacological property and in vivo antihyperglycaemic efficacy” (Journal of Enzyme Inhibition and Medicinal Chemistry, 2019).

pIC50: −log10 of the molar value.

Series [1] deals with T1, human PTP1B (Homo sapiens, UniProt P18031).
T1 construct: purchased Sigma
T1 sequence (P18031 1-435): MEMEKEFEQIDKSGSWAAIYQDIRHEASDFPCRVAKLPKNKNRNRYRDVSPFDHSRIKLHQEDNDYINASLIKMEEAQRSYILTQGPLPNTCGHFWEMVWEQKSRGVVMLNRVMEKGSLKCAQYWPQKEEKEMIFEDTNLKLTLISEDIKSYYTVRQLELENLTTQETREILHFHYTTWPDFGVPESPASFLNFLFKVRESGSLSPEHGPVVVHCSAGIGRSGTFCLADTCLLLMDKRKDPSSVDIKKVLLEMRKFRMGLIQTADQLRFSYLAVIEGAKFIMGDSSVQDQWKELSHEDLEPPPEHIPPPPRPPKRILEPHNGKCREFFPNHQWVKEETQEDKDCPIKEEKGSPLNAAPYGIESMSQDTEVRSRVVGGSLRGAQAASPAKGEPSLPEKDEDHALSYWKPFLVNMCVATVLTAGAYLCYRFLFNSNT
The experiment in a line: PTP1B inhibition assay (pNPP substrate, UV absorption). It is filed as biochemical. As to conditions: for inhibition at 10 µM: PTP1B inhibition at 10 μM, performed in triplicate. How it is done:
The inhibitory assay was performed using human PTP1B (purchased from Sigma) and p-nitrophenylphosphate (pNPP) as substrate by UV absorption. 400 nmol pNPP were dissolved in H2O and 48 μL of the solution was added to a 100 μL reaction. The indicated amount of synthetic compounds was diluted in DMSO at a concentration of 5 mM. The PTP1B was diluted in pH 7.2 buffer contained 50 mM HEPES, 3 mM dithiothreitol, 2 mM EDTA and 100 mM NaCl. About 50 μL PTP1B dilution was added, and the mixture incubated at 37 °C for 30 min. 1N NaOH was added to terminate the reaction. UV–Vis absorption was detected at 410 nm using a Tecan Infinite M1000 plate reader.

In series [2] the test system is NIDDM mice. It is filed as in vivo. The following applies: for Antihyperglycaemic effect (plasma glucose): male Kunming mice, 100 mg/kg intraperitoneally, glucose at 0-4 h, n = 8. How it is done:
The antihyperglycaemic effect of the compounds 15, 25 and C10a were evaluated on non-insulin dependent diabetes mellitus (NIDDM) mice. Nicotinamide and streptozotocin were administrated intraperitoneally to induce hyperglycaemia and the plasma glucose of mice raised over 4.5 mmol/L[45].
Figure 5. The antihyperglycaemic effect in NIDDM mice (n = 8). […] M group: NIDDM mice were treated with saline alone. Y group: NIDDM mice were treated with rosiglitazone.
During the experiment, the male Kunming mice with 25–30 g body weight were fasted but received water prior to induction of diabetes. 110 mg/kg of nicotinamide and 65 mg/kg of streptozotocin (Macklin in Biochemical Technology Co., Ltd., Shanghai, China) were dissolved in pH 4.5 citrate buffer and intraperitoneally administrated to induce NIDDM mice model. The mice were intraperitoneally administered with a compound or rosiglitazone (100 mg/kg) dissolved in saline containing 1% DMSO and 10% Tween 80. Hyperglycaemia was confirmed by a plasma glucose increase of more than 4.5 mmol/L measured by a blood glucose metre (Sinocare GA-3, Changsha, China). Glucose concentrations from the tail of the mice were measured at 0, 0.5, 1, 2, 3 and 4 h by the blood glucose metre. Calculate the percentage of blood glucose by using the following formula: variation of glycaemia% = (AX − A0)/A0 × 100% (AX: blood glucose at selected time; A0: initial blood glucose).

Series [3] deals with PTP1B. More on the design: method as in PMID 20964318. The following applies: cited from earlier work.
The test system of series [4] is HepG2 cells. Briefly: Cell viability in the MTT assay. It is filed as cell-based, human. As to conditions: 40 μM compound, 24 h. The protocol:
Cell viability in the MTT assay
The toxicities of the compounds were evaluated by (3-(4, 5-dimethylthiazolyl-2)-2, 5-diphenyltetrazolium bromide) test. HepG2 cells were routinely grown in Dulbecco's Modified Eagle Medium (DMEM) supplemented with 10% (v/v) fetal bovine serum, streptomycin ([…]), and penicillin (100U/mL), in a humidified atmosphere of 95% air, 5% CO2 at 37°C. HepG2 cells were planked in a 96 well plate with a concentration of 1×10^4 cells/well and cultured in 37°C and 5%CO2 for 24 h. Then HepG2 cells were treated with 40 μM of the synthetic compound. HepG2 cells untreated were used as control. HepG2 cells were cultured in 37℃ and 5%CO2 for 24 h, the old medium was carefully removed and were cultured for another 4 h in MTT (0.5%) containing DMEM, then the medium was carefully removed. 150 µL/well dimethyl sulfoxide was added and oscillated gently to make crystal dissolved. The absorbance at 560 nm was measured using a microplate reader. The cell […]
Fig. S1. Cell viability in the MTT assay.
(1 picture or pasted object on this page, not shown here)

For series [5], the system named is insulin-resistant HepG2 cells. Briefly: Glucose uptake / glucose consumption in insulin-resistant HepG2 cells. The following applies: HepG2 induced with 1.5 × 10^−5 mmol insulin for 36 h; compound 40 μM or rosiglitazone 10 μM for 24 h; glucose oxidase method. It is filed as cell-based, human. How it is done:
To assess the insulin sensitisation, the cellular effect of these compounds on insulin-resistant human hepatoma HepG2 cells was performed. The concentration of insulin and induction time were screened to induce insulin resistance in HepG2 cells according to the reported method[41]^,[42] with some modification. As shown in Figure 4(A), treatment with above 1 × 10^−5 mmol of insulin reduced glucose uptake, whereas treatment with 6 × 10^−6 mmol of insulin enhanced glucose uptake. […] As shown in Figure 4(B), insulin resistance was induced in HepG2 cells at 36 h, and rosiglitazone can decrease the insulin resistance. […]
Figure 4. […] After incubation, glucose content in the culture medium was measured by glucose oxidase method. […]
HepG2 cells were grown in DMEM with 10% foetal bovine serum, […] of streptomycin, and 100 U/mL of penicillin, in a humidified atmosphere of 5% CO2 at 37 °C. […] After cultivation, the glucose content was determined by the glucose oxidase method (the glucose analysis kit was purchased from Rongsheng Biopharmaceutical Co., Ltd., Shanghai, China). […] The absorbance was measured at 506 nm using a microplate reader (SpectraMax i3x, Molecular Devices). The residual glucose concentration is expressed as AX/A0 × 5.55 mmol/L (AX: OD value of sample; A0: OD value of glucose standard solution).

Consider `Cc1ccc(S(=O)(=O)OCC2(C)CCCC3(C)C4CCC(C(C)C)=CC4=CCC23)cc1` (stereo not drawn) [Compound 10], for which the melting point lay within 67 to 68 °C. The molecule also showed an inhibition at 10 µM in series [1] of 2%.
Regarding `C[C@@]1(C(=O)O)CCC[C@]2(C)c3ccc(OCCOC(=O)c4ccccc4N)cc3CCC12` (stereo partly drawn) [Compound 28], the melting point fell in the range of 126 to 127 °C.
Molecule `CCOC(=O)[C@]1(C)CCC[C@]2(C)c3ccc(C(C)(C)O)cc3CCC12` (stereo partly drawn) [Compound 4a, Ethyl 15-hydroxydehydroabietate] showed a melting point of 51 to 52 °C. In series [1], this molecule came in with an inhibition at 10 µM of 4%.
For `C[C@@]1(C(=O)O)CCC[C@]2(C)c3ccc(O)cc3CCC12` (stereo partly drawn) [Compound 7, 13-hydroxy-8,11,13-podocarpatriene-1-carboxylic acid], in that order: 101 to 102 °C and 1%.
The molecule `C[C@@]1(C(=O)O)CCC[C@]2(C)c3ccc(OCCOC(=O)c4ccccc4)cc3CCC12` (stereo partly drawn) [Compound 25] gave a melting point of 138 to 139 °C.
In the case of `CC(C)(O)c1ccc2c(c1)CC[C@H]1[C@](C)(C(=O)O)CCC[C@]21C` [Compound 3, 15-Hydroxydehydroabieta-18-oic acid], the melting point was in the range of 92 to 93 °C. In series [1], this molecule returned an inhibition at 10 µM of 19%.
With `CC(C)C1=CC2=CCC3C(C)(C)CCCC3(C)C2CC1` (stereo not drawn) [Compound 11], at 10 µM the inhibition in series [1] was 0%.
Consider `CC1(C)CCC2(COC(=O)c3ccccc3C(=O)O)CCC3(C)C(=CCC4C5(C)CCC(=O)C(C)(C)C5CCC43C)C2C1` (stereo not drawn) [Compound C10a], for which the “Antihyperglycaemic effect (plasma glucose)” value in series [2] is “showed the antihyperglycaemic effect”. For the same molecule, the “Acute toxicity observations in treated mice” value in series [2] (mouse, in vivo, ip) was “hydroabdomen, thrombus and tail necrosis”. In addition, the pIC50 in series [1] (values from the text, quantity type not printed there (Table 2 is an image), read-out: PTP1B enzymatic inhibitory activities) is 5.51; in series [3] (previous work, read-out: PTP1B inhibition IC50), 5.51. Moreover, the “PTP1B inhibition, fold more than the parent compound OA” value in series [3] (versus OA) is 7.6 fold. Besides, the Cytotoxicity result in series [4] was “considerable cytotoxicity and High”.
In the case of `C[C@@]1(C(=O)O)CCC[C@]2(C)c3ccc(OCCOC(=O)c4ccc5cc(C(=O)O)ccc5c4)cc3CCC12` (stereo partly drawn) [Compound 34], the melting point lay in the range of 189 to 190 °C.
Regarding `CC(C)C1=CC2=CC[C@@H]3[C@](C)(CCC[C@@]3(C)C(=O)O)[C@H]2CC1` [Compound 1, abietic acid], in series [1], the inhibition at 10 µM was found to be 35%.
With `CN(CCOc1ccc(CC2SC(=O)NC2=O)cc1)c1ccccn1` (stereo not drawn) [rosiglitazone], the “Antihyperglycaemic effect (plasma glucose)” value in series [2] is recorded as “significant antihyperglycaemic effect after 1 h”. Further, the “Effect on glucose consumption / insulin-stimulated glucose uptake” value in series [5] is “significantly decrease the insulin resistance and improve the glucose uptake”.
Consider `CC(C)(O)c1ccc2c(c1)CCC1[C@](C)(CO)CCC[C@]21C` (stereo partly drawn) [Compound 5, 1-Hydroxylmethyl-15-hydroxydehydroabietate], for which, in series [1], the inhibition at 10 µM came out at 0%.
The same measure, in the same setting: to `CC(C)(O)c1ccc2c(c1)CCC1C(C)(C)CCCC21C` (stereo not drawn) [Compound 13, 15-Hydroxydehydroabietane] belongs 22%.
`C[C@@]1(C(=O)O)CCC[C@]2(C)c3ccc(OCCOC(=O)c4ccccc4C(=O)O)cc3CCC12` (stereo partly drawn) [Compound 15] registered a melting point of 72 to 73 °C.
As for `CC(C)C1=CC2=CCC3C(C)(CO)CCCC3(C)C2CC1` (stereo not drawn) [Compound 9], at 10 µM the inhibition in series [1] was 3%.
Molecule `CC1(C)CCCC2(C)c3ccc(O)cc3CCC12` (stereo not drawn) [Compound 14, 13-Hydroxy-8,11,13-podocarpatriene] displayed a melting point of 145 to 146 °C. In series [1], this molecule came in with an inhibition at 10 µM of 15%.
